Data from ChEMBL document CHEMBL1921742, “9,10-secosteroids, protein kinase inhibitors from the Chinese gorgonian Astrogorgia sp” (Bioorg Med Chem, 2011).

What was measured:
[1] = biological target: T1, Serine/threonine-protein kinase Nek2 (Homo sapiens, UniProt P51955); experiment: Inhibition of recombinant human NEK2
T1 sequence (P51955 whole entry): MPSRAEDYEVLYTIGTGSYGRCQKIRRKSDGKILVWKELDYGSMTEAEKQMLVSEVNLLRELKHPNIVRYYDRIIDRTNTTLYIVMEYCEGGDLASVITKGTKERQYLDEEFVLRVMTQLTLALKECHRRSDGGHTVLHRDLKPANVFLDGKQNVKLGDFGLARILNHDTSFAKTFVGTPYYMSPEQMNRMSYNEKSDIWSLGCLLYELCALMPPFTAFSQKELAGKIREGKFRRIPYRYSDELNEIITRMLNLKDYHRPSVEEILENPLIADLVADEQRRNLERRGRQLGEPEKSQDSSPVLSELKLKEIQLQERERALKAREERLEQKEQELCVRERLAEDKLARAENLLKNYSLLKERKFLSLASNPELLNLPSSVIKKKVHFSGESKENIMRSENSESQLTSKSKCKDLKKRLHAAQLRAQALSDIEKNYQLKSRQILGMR

[2] = biological target: T2, NUAK family SNF1-like kinase 1 (Homo sapiens, UniProt O60285); experiment: Inhibition of recombinant human ARK5
T2 sequence (O60285 whole entry): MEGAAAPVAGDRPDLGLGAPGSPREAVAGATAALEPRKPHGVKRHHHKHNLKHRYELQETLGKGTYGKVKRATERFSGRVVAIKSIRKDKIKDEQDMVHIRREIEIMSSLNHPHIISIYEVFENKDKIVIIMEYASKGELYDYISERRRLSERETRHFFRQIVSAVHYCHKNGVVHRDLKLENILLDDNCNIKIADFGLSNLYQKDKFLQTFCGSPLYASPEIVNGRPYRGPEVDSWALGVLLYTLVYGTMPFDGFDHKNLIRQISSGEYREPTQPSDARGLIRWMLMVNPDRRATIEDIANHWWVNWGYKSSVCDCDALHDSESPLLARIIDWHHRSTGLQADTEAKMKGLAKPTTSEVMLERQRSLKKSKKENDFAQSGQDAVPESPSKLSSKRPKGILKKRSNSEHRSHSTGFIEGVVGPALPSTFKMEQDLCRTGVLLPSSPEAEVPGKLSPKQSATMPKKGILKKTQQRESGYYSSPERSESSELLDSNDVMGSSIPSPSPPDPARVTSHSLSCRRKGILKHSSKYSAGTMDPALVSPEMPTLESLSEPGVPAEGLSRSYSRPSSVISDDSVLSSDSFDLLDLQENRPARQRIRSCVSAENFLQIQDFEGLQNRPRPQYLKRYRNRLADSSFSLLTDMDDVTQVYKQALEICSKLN

[3] = biological target: Serine/threonine-protein kinase pim-1 (Homo sapiens, UniProt P11309); experiment: Inhibition of recombinant human PIM1
Sequence of Serine/threonine-protein kinase pim-1 (P11309 whole entry, the tested form may be a part): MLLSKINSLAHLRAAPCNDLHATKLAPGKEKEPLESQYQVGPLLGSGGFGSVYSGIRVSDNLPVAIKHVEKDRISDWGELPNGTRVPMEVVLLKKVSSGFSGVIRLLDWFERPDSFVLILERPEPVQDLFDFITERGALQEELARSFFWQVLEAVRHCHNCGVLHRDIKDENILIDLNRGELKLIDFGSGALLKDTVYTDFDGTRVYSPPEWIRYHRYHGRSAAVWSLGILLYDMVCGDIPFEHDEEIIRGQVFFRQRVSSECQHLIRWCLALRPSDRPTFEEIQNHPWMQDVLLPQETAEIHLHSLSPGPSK

[4] = biological target: RAC-alpha serine/threonine-protein kinase (Homo sapiens, UniProt P31749); experiment: Inhibition of recombinant human AKT1 using GSK3 (amino acids 14 to 27) as substrate
[5] = biological target: Hepatocyte growth factor receptor (Homo sapiens, UniProt P08581); experiment: Inhibition of wild type human MET using poly(Ala,Glu,Lys,Tyr) as substrate
[6] = biological target: Serine/threonine-protein kinase Nek6 (Homo sapiens, UniProt Q9HC98); experiment: Inhibition of recombinant human NEK6
Sequence of Serine/threonine-protein kinase Nek6 (Q9HC98 whole entry): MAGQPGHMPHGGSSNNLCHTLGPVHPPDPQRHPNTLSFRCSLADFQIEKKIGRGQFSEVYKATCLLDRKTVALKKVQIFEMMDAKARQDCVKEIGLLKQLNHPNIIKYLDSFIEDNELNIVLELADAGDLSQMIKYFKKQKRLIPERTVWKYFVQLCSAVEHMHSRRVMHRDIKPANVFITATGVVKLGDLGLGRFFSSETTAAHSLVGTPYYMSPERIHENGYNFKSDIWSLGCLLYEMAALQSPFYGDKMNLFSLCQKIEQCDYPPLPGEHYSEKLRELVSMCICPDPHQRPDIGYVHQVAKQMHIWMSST

Focal adhesion kinase 1 = Focal adhesion kinase 1 (Homo sapiens, UniProt Q05397); experiment: Inhibition of recombinant human FAK using poly(Glu,Tyr)4:1 as substrate
Sequence of Focal adhesion kinase 1 (Q05397 whole entry): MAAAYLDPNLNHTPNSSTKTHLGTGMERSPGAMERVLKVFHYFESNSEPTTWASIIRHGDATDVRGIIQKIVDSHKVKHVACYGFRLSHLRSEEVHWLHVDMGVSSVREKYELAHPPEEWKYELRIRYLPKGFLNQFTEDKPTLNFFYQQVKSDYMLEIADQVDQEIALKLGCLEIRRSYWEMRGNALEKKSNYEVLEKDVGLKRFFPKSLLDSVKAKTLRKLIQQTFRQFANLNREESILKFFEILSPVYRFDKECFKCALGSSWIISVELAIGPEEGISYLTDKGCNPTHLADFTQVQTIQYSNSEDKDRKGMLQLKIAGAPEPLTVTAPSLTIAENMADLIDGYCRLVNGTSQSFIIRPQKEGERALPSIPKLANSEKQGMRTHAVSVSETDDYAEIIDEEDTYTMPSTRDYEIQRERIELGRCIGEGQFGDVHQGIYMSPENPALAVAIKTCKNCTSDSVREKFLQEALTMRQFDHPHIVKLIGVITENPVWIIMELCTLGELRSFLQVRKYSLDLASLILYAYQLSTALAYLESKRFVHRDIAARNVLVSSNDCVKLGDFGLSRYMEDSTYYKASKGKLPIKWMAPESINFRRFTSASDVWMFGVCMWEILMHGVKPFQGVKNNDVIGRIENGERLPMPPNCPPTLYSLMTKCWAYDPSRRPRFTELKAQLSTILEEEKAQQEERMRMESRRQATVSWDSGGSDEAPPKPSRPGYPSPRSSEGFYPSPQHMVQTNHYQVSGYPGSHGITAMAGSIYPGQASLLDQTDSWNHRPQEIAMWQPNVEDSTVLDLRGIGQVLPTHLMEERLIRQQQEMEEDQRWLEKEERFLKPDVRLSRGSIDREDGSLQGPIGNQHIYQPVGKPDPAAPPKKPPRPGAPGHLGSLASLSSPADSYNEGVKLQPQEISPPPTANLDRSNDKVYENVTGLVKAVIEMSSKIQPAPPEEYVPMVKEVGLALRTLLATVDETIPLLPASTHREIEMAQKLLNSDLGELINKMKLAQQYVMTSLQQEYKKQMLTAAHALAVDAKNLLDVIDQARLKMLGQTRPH

[7] = biological target: Dual specificity mitogen-activated protein kinase kinase 1 (Homo sapiens, UniProt Q02750); experiment: Inhibition of wild type human MEK1
Sequence of Dual specificity mitogen-activated protein kinase kinase 1 (Q02750 whole entry): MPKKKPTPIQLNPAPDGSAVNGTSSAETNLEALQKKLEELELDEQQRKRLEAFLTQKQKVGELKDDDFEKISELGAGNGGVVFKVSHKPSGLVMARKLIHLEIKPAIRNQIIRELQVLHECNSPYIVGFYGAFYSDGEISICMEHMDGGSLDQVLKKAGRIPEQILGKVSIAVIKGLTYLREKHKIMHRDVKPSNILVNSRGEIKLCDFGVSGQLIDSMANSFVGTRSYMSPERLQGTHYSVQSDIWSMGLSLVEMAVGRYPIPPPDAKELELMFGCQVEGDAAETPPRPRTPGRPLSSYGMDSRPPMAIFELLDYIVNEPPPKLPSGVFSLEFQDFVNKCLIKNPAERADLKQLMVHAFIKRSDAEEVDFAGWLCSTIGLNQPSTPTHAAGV

[8] = biological target: Serine/threonine-protein kinase PLK1 (Homo sapiens, UniProt P53350); experiment: Inhibition of recombinant human PLK1 using casein as substrate
Sequence of Serine/threonine-protein kinase PLK1 (P53350 whole entry): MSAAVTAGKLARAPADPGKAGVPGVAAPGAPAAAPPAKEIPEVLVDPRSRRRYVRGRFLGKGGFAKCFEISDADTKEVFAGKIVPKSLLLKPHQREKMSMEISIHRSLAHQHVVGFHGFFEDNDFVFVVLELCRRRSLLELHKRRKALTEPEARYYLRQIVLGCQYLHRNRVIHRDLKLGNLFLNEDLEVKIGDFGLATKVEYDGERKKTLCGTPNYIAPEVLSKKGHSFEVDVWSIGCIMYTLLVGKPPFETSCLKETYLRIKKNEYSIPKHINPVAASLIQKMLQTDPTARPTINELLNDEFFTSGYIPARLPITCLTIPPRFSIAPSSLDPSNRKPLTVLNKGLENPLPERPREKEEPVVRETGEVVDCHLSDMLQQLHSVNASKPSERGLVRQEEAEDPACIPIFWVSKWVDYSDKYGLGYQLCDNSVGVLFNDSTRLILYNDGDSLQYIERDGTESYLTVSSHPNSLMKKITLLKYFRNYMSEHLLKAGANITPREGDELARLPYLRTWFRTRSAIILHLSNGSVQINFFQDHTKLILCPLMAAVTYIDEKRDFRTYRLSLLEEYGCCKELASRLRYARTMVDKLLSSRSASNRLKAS

Aurora kinase B = Aurora kinase B (Homo sapiens, UniProt Q96GD4); experiment: Inhibition of recombinant human Aurora-B using tetra(LRRWLSG) as substrate
[9] = biological target: T3, Tyrosine-protein kinase receptor UFO (Homo sapiens, UniProt P30530); experiment: Inhibition of recombinant human AXL
T3 sequence (P30530 whole entry): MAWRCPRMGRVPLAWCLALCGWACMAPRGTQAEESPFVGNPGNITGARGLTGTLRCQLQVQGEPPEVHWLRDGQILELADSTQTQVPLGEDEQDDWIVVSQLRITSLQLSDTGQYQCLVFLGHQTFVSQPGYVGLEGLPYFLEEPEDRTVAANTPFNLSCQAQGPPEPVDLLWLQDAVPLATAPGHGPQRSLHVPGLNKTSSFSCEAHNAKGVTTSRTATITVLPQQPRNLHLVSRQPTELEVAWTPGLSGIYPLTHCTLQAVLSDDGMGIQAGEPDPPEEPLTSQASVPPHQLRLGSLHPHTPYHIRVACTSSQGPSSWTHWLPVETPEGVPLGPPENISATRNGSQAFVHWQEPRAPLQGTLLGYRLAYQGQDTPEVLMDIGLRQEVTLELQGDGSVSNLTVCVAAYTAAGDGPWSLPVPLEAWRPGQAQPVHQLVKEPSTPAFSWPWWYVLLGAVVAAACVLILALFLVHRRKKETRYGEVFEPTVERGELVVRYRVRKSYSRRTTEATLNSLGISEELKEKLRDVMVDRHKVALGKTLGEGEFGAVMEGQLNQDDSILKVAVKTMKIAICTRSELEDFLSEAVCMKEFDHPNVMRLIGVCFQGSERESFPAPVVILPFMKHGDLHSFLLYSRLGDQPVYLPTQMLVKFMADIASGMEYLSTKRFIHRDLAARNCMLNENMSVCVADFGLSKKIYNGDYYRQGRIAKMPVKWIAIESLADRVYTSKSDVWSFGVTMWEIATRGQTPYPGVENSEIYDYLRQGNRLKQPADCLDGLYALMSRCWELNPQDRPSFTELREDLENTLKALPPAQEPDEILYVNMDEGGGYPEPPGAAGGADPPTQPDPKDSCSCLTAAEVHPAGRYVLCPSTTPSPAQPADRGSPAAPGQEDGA

[10] = biological target: Insulin-like growth factor 1 receptor (Homo sapiens, UniProt P08069); experiment: Inhibition of recombinant human IGF1-R using poly(Glu,Tyr)4:1 as substrate
[11] = biological target: ALK tyrosine kinase receptor (Homo sapiens, UniProt Q9UM73); experiment: Inhibition of recombinant human ALK
Sequence of ALK tyrosine kinase receptor (Q9UM73 whole entry): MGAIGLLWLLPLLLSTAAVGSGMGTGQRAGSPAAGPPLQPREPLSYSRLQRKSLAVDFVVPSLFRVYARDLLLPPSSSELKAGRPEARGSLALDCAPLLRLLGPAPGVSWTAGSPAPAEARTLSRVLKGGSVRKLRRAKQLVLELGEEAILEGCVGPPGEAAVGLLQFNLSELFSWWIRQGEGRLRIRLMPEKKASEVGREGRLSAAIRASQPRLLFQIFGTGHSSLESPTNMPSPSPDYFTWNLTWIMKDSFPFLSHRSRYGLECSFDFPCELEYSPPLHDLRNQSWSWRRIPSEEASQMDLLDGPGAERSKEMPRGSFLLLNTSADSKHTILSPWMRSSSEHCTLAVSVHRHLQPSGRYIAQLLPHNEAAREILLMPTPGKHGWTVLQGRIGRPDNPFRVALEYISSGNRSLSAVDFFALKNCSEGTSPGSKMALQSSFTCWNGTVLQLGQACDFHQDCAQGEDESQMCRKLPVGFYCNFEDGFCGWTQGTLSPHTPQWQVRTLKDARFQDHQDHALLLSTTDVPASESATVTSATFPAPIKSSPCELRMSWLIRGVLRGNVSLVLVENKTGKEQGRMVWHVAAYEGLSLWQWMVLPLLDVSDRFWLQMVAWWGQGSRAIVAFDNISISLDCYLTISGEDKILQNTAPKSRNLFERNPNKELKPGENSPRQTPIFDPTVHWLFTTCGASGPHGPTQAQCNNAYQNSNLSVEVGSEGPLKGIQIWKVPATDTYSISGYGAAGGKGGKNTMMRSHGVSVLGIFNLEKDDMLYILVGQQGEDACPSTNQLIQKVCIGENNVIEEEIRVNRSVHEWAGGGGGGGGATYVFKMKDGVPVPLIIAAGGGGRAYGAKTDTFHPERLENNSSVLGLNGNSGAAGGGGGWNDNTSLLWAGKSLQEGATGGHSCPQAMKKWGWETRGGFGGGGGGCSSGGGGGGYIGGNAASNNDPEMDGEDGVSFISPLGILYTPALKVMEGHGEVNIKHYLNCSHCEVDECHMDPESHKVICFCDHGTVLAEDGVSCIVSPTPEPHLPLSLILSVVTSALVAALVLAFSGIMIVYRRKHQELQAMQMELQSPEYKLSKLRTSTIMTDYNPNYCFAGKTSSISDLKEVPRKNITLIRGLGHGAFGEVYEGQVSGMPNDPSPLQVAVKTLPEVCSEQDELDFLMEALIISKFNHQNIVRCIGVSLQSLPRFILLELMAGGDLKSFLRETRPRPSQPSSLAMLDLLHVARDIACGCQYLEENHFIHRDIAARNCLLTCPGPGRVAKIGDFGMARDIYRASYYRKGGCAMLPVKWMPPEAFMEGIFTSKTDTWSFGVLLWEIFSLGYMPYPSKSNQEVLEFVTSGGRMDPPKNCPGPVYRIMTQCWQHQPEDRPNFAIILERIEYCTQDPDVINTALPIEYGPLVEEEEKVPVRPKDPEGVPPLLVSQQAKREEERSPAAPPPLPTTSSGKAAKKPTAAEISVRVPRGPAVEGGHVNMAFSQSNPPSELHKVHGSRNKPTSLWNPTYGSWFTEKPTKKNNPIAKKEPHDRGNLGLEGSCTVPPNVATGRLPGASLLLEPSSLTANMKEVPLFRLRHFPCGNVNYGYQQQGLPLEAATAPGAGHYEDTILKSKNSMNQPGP

[12] = biological target: Serine/threonine-protein kinase N1 (Homo sapiens, UniProt Q16512); experiment: Inhibition of recombinant human PRK1
[13] = biological target: Proto-oncogene tyrosine-protein kinase Src (Homo sapiens, UniProt P12931); experiment: Inhibition of recombinant human SRC using poly(Glu,Tyr)4:1 as substrate
Sequence of Proto-oncogene tyrosine-protein kinase Src (P12931 2-536 limits assumed): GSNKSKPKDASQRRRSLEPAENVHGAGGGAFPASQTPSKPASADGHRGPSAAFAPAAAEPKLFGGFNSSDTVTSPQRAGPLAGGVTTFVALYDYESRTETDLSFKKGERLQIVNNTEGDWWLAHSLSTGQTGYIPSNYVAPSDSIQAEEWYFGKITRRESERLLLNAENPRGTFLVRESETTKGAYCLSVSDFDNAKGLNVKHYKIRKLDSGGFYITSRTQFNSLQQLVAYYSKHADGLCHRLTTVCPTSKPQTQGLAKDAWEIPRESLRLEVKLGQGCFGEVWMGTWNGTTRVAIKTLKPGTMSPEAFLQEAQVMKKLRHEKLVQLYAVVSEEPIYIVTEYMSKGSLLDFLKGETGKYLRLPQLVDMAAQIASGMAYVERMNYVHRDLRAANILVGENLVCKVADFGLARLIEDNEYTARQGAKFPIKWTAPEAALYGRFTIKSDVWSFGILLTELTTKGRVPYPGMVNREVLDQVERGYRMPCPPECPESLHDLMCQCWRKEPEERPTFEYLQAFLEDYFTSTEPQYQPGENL

[14] = biological target: Vascular endothelial growth factor receptor 2 (Homo sapiens, UniProt P35968); experiment: Inhibition of recombinant human VEGF-R2 using poly(Glu,Tyr)4:1 as substrate

| SMILES | IC50 [1] [µM] | IC50 [2] [µM] | IC50 [3] [µM] | IC50 [4] [µM] | IC50 [5] [µM] | IC50 [6] [µM] | IC50 (Focal adhesion kinase 1) [µM] | IC50 [7] [µM] | IC50 [8] [µM] | IC50 (Aurora kinase B) [µM] | IC50 [9] [µM] | IC50 [10] [µM] | IC50 [11] [µM] | IC50 [12] [µM] | IC50 [13] [µM] | IC50 [14] [µM] |
| --- | --- | --- | --- | --- | --- | --- | --- | --- | --- | --- | --- | --- | --- | --- | --- | --- |
| C=C(CC[C@@H](C)[C@H]1CC[C@H]2[C@H](CCc3cc(O)ccc3C)C(=O)CC[C@]12C)C(C)C | > 100 | > 100 | > 100 | > 100 | 27.5 | > 100 | 10.7 | > 100 | 100 | > 100 | 20.2 | 2.3 | 4.36 | > 100 | 1.48 | 4.85 |
| Cc1ccc(O)cc1CC[C@@H]1[C@@H](O)CC[C@]2(C)[C@@H]([C@H](C)/C=C/CC(C)C)CC[C@@H]12 (relative stereo) | > 100 | > 100 | > 100 | > 100 | – | > 100 | 16.9 | > 100 | > 100 | 38.1 | 21.9 | 3.16 | 9.33 | > 100 | 2.4 | 4.95 |
| Cc1ccc(O)cc1CC[C@@H]1[C@H](O)CC[C@]2(C)[C@@H]([C@H](C)CCCC(C)C)CC[C@@H]12 [ASTROGORGIADIOL] | > 100 | > 100 | > 100 | > 100 | 78 | > 100 | 13.2 | 48.9 | > 100 | 25.1 | 16.9 | 2.77 | 7.55 | > 100 | 1.91 | 4.35 |
| Cc1ccc(O)cc1CC[C@@H]1C(=O)CC[C@]2(C)[C@@H]([C@H](C)/C=C/CC(C)C)CC[C@@H]12 [CALICOFEROL A] | > 100 | > 100 | > 100 | > 100 | 47.6 | > 100 | 9.92 | > 100 | > 100 | > 100 | 14.7 | 2.42 | 4.16 | > 100 | 2.24 | 4.6 |
| Cc1ccc(O)cc1CC[C@@H]1[C@H](O)CC[C@]2(C)[C@@H]([C@H](C)CCCC(C)C)[C@@H](O)C[C@@H]12 [CALICOFEROL B] | > 100 | > 100 | > 100 | > 100 | > 100 | > 100 | > 100 | > 100 | > 100 | > 100 | > 100 | > 100 | > 100 | > 100 | > 100 | > 100 |
| C=C(CC[C@@H](C)[C@H]1CC[C@H]2[C@H](CCc3cc(O)ccc3C)[C@H](O)CC[C@]12C)C(C)C [CALICOFEROL C] | > 100 | > 100 | > 100 | > 100 | > 100 | > 100 | > 100 | > 100 | > 100 | > 100 | > 100 | > 100 | > 100 | > 100 | > 100 | > 100 |
| Cc1ccc(O)cc1CC[C@@H]1C(=O)CC[C@]2(C)[C@@H]([C@H](C)CCCC(C)C)CC[C@@H]12 [CALICOFEROL E] | > 100 | > 100 | > 100 | > 100 | – | > 100 | 9.63 | > 100 | > 100 | > 100 | 32.6 | 2.46 | 4.73 | > 100 | 2.17 | 6.01 |
| Cc1ccc(O)cc1CC[C@@H]1C(=O)CC[C@]2(C)[C@@H]([C@H](C)CCCC(C)C)[C@@H](O)C[C@@H]12 [CALICOFEROL I] | > 100 | > 100 | > 100 | > 100 | > 100 | > 100 | > 100 | > 100 | > 100 | > 100 | > 100 | > 100 | > 100 | > 100 | > 100 | > 100 |
